Tests used:
MeCP2 deficient mice = assay: Seizure activity, electroencephalograph recordings in MeCP2 deficient mice; type: in vivo
Source text: Electroencephalograph: recordings of wild-type mice and MeCP2 deficient mice treated with either saline or cG-2-AllylP are obtained using methods described in U.S. Pat. No. 7,714,020, incorporated fully by reference.

p-ERK1/2 = assay: Phospho-flow cytometry of lymphocytes, p-ERK1/2; type: in vivo; conditions: fmr1-knockout mice; 15, 30, 60 and 240 minutes after a single treatment
Source text: Lymphocytes are isolated from five fmr1-knockout and five wild-type titter mate control mice, per study time after injection with cG-2-AllylP. Lymphocytes are examined for activation of two signaling effectors, p-ERK1/2 and p-Akt using phosphorylation status as a measure of activation by flow cytometry (phospho-flow).
1. Flow cytometry total and phosphorylated ERK in lymphocytes

[1] = test system: pre-synaptic vesicles in the hippocampus; assay: Pre-synaptic vesicle count by transmission electron microscopy, middle aged rats; type: in vivo, Wistar male rats; conditions: CA1 and C3 subregions; 3 mg/kg/day x 7 days, s.c.; 21 days
Description: Four middle aged Wistar male rats (12 months) were divided into two groups: one vehicle-treated (n=2) and one cG-2-AllylP-treated (n=2). The rats were treated subcutaneously with 3 mg/kg/day of either saline or cG-2-AllylP for 7 days. On day 21 of the experiment the animals were sacrificed and the hippocampal tissue was harvested. Semi-thin sections of the tissue were fixed with OsO4 and embedded in resin. CA1 stratum oriens and CA3 sections were then sliced into ultra-thin, 80 nm slices and stained with uranyl acetate and lead citrate. Approximately 30 synapses per animal were analysed, synapse type classified and vesicle density was measured using AnalySIS®.
Transmission electron microscopy was used to count the total number of vesicles on the slides. The average density was calculated by measuring the total area (using AxioVision software) and using the number of vesicles. We followed the protocol in Yoshida et al. 97, Journal of Neurochemistry to calculate the vesicle density in a 200 nm×200 nm square apposing the post-synaptic density (PSD).

[2] = test system: fmr1-knockout hippocampal neurons; assay: Dendritic spine density in hippocampal cell cultures; type: cell-based, mice
Description: Hippocampal cell cultures were prepared from wild type and fmr1-knockout fetal mice (14-16 days of gestation). Briefly, mice were kill by cervical dislocation under chloroform anesthesia, and dissociated hippocampal cells were plated in 13 mm multiwell vessels (Falcon Primaria). A plating medium of MEM-Eagle's salts (supplied glutamine free) supplemented with 10% fetal bovine serum was used. Cultures were kept at 37° C. in a humidified 3% CO2 atmosphere. After 3d in vitro, green fluorescent protein (GFP) was added to monitor dendritic spine morphogenesis during time-course of culture (Ethell and Yamaguchi, 1999; Ethell et al., 2001, Henkemeyer et al., 2003). The dendritic spines usually formed between 7 and 14 days in vitro (DVI). By 14 DIV most dendritic protrusions were spines. The mean (±SD) spine density was measured as number of spines per micrometer and experiments were run in triplicate.

Aged rats = assay: Novel Object Recognition Test (NORT) in aged rats; type: in vivo, male Wistar rats; conditions: 27 days after single 20 ng/animal i.c.v.
Description: Aged rats (male Wistar rats, 18-20 months old) were divided into four groups: two vehicle-treated (groups 1 and 3) and two G-2-AllylP treated (groups 2 and 4) (all groups n=6-8). Cyclic G-2-AllylP was synthesised by the Department of Medicinal Chemistry and dissolved in normal saline before the treatment. On day 1 a single dose of cyclic G-2-AllylP was given centrally (20 ng/animal, i.c.v.) to the animals in groups 2 and 4; saline was administered to groups 1 and 3. The memory tests using Novel Object Recognition Test started either on day 3 (groups 1 and 2) or 24 (groups 3 and 4) after the treatment. On the completion of the NORT, the rats were killed with an overdose of sodium pentobarbital and were perfused transcardially with normal saline followed by 10% formalin. Tissues collected at day 7 in groups 1 and 2, and at day 28 from groups 3 and 4. The brains were kept in the same fixative for a minimum of 2 days before being processed using a standard paraffin embedding procedure. Briefly, small blocks (10×10×3 mm) of tissue were fixed for up to 24 hrs. The blocks were then infiltrated and embedded with paraffin and cut in ribbons and mounted on slides. Slides were then stored until immunostaining was commenced. Synaptogenesis in brain tissue was examined using immunohistochemical staining. […]

synaptophysin (SYN) = assay: PBBI in rats: synaptophysin (SYN) immunohistochemistry in hippocampus; type: in vivo, Sprague-Dawley rats; conditions: 30 mg/kg oral once daily
Description: The methods for producing PBBI in this Example is the same as described above for Example 26. Adult Sprague-Dawley rats were randomly assigned into three groups: sham (craniotomy only), PBBI+vehicle (i.e. H2O), and PBBI+cG-2-AllylP. cG-2-AllylP (or vehicle) was administered via oral gavage at 30 mg/kg at 30 min post-injury and continued once daily thereafter for 7, 14 or 28 days. At each treatment endpoint, rats were perfused and brains were processed for histological analysis (n=5-6/group/time-point). For detection of axonal sprouting, immunohistochemical detection of growth-associated protein-43 (GAP-43) was employed. Synaptogenesis was determined by immunohistochemistry for synaptophysin (SYN). For histological quantification, the integrated density in the hippocampal region was determined using NIH ImageJ software.

For `C=CC[C@]12CCCN1C(=O)CNC2=O` [cG-2-AllylP, (8aS)-Allyl-hexahydropyrrolo[1,2-a]pyrazine-1,4-dione], the “motor seizures and non-convulsive seizures” value (MeCP2 deficient mice) was “effective in decreasing both motor seizures and non-convulsive seizures”, the “mean fluorescent intensity (MFI) for p-ERK1/2” value (p-ERK1/2) was “decreases at all time points” and the “number of pre-synaptic vesicles” value [1] was “increased”. The “spine density (mean±SD)” value ([2]; 0.5 nM, n=3) was 0.36±0.02 number of spines per micromete, the “spine density (mean±SD)” value ([2]; 5 nM) was 0.25±0.03 number of spines per micromete and the “spine density (mean±SD)” value ([2]; 50 nM) was 0.27±0.10 number of spines per micromete. The “novelty recognition (NORT)” value (Aged rats) was “trend to improve the novelty recognition”, the “injury-induced reduction in SYN expression” value (synaptophysin (SYN); 7d or 14d post-PBBI) was “no effect on injury-induced reductions” and the “PBBI-induced reduction in SYN expression” value (synaptophysin (SYN); 28 days post-injury) was “attenuated PBBI-induced reductions”.
